# Measurements: paper PMC9304170, “Chloromethyl Glycosides as Versatile Synthons to Prepare Glycosyloxymethyl‐Prodrugs” (Chemistry (Weinheim an Der Bergstrasse, Germany), 2022)
# “And” between values parts separate entries of the source, which are not always exact repeats. Equal entries are not always repeated.
# How the values were obtained:
# [1] = biological target: T1, Abg (Agrobacterium Sp. β-glucosidase) (Agrobacterium sp., UniProt P12614); test: Enzymatic hydrolysis at 13 mM studied by quantitative 1H NMR; type: biochemical; conditions: 13 mM substrate in D2O, maleate buffer pD 6.5, Abg 1.6 U/mL, 37 °C
# T1 sequence (P12614 1-459): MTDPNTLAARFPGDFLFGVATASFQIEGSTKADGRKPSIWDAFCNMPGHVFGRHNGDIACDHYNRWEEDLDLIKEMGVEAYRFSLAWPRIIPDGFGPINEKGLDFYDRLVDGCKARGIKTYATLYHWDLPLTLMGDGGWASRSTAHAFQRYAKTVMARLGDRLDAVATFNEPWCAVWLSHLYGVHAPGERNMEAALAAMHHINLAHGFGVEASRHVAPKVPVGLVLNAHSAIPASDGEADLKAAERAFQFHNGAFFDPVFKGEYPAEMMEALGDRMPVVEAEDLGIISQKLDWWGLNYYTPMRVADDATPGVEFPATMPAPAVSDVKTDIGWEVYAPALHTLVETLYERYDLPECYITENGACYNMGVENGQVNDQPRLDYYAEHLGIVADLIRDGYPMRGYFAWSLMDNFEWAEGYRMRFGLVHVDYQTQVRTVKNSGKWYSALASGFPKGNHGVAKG
# [2] = biological target: T2, Agrobacterium Sp. β-glucosidase (Abg, GH1 family) (Agrobacterium sp., UniProt P12614); test: Michaelis-Menten kinetics of enzymatic hydrolysis, release of 4-nitrophenol (absorbance at 405 nm); type: biochemical; conditions: transglycosylation suggested for rate enhancement
# T2 sequence (P12614 1-459): T1 sequence (P12614 1-459)
# Protocol: Enzymatic reactions were performed in triplo at pH 6.8 (50 mM final concentration) containing 0.1 % bovine serum albumin at 37 °C.[25] Aliquots of 100 μL were taken at constant time periods and added to 100 μL aq. NaOH (0.1 M) in a 96‐well microtitre plate to quench the enzymatic reaction and ensure maximal absorption of sodium 4‐nitrophenolate as outlined in previous studies.[28] The initial rate (vo) was determined normalized on the ∼0.1 U/mL enzyme concentration and plotted against substrate concentration [S]. Non‐linear regression analysis based on 7–10 concentrations depending on the glycoside, was used to determine the Km and k cat values. k cat values were normalized based on the enzyme concentration. […]
# Kinetic evaluation of 4- nitrophenyloxymethyl glycosides. Enzyme reactions were performed in triplicate. Substrate samples (final volume of 1 mL) were prepared by diluting carefully prepared substrate stock solutions with sodium phosphate buffer pH 6.8 (50 mM final concentration) containing 0.1% bovine serum albumin and milliQ to the desired concentration. The samples were equilibrated at 37 °C for at least 5 minutes before the enzyme in 50 mM buffer (2 U per ml, 50 uL) was added. Aliquots of 100 µL were taken at constant time periods and added to 100 µL aq. NaOH (0.1 M) in a 96 well microtiter plate to quench the enzymatic reaction. The absorbance was measured at 405 nm using a Tecan Spark M10 plate reader.
# Negative assay controls contained no substrate or no enzyme. Rates of the enzymatic reactions were determined at 7 different substrate concentrations from 0.02 – 1.0 mM. Km and kcat values were determined by nonlinear regression analysis using Graphpad 5.0 (GraphPad Software, San Diego, California USA, www.graphpad.com) for fitting the data. Calibration samples at varying concentration (0.05 – 0.5 mM) were prepared similar to the substrate samples in the enzyme reactions by diluting a carefully prepared 4-nitrophenol stock solution with sodium phosphate buffer pH 6.8 (50 mM final concentration) containing 0.1% bovine serum albumin and milliQ to the desired concentration. […]
# (T1 determined as 9.13 sec.) was used. Dynamic measurements were started by heating the sample in the NMR to 37 °C and recording a t0-spectrum. Subsequently Abg (V = 2.05 uL, 0.82 U, 1.64 U/mL) was added to the sample outside of the NMR. The sample was mixed by shaking and quickly reintroduced to the NMR.
# The time of enzyme addition was recorded as t0. Spectra were recorded over an appropriate time- scale with the relaxation delay at 3*T1 of the internal standard.
# In vivo experiments were performed at the company Charles Rivers (Den Bosch, The Netherlands) in accordance with Dutch law of animal experiments and under approval of the central committee of animal experiments (CCD). Relative and absolute bioavailability may be determined in different animal models and according to different protocols.
# The following protocol is typical for determining bioavailability in female Beagle dogs. The animals were deprived from food over a time period of 8 h prior to administration and 2 h after administration of the test molecules. Water was supplied without limitation. On the study day, the animals received test molecule 10h […]
# ethanol and 0.9% NaCl + 5% mannitol in water. Blood samples were collected from the jugular vein on the […]
# [3] = Control experiments without enzyme (stability in assay buffer); type: physicochemical; conditions: 200 μM, 50 mM phosphate buffer pH 6.8, 37 °C, HPLC
# [4] = biological target: T1, Abg (Agrobacterium Sp. β-glucosidase); test: Enzymatic conversion of glycoside-drug conjugates at 200 μM analyzed by HPLC; type: biochemical; conditions: 37 °C; for Product release: 200 μM substrate, 50 mM phosphate buffer pH 6.8, Abg 0.1 U/mL
# [5] = pH stability test and stability in formulation; type: physicochemical
# Protocol: In vivo experiments. […] To investigate the chemical stability towards conditions in the gastrointestinal tract, we performed pH stability test. […] The pharmacokinetic profile of 10 h was studied in a dog‐animal model (adult beagle).
# [6] = In vivo pharmacokinetics study after oral gavage, losartan in blood by LC-MS-MS; design: species or system female Beagle dogs; conditions: 15 μmol/kg oral gavage, Beagle dog; for Intact conjugate in the blood circulation: LC-MS-MS
smiles,measurement,setting,value
"O=[N+]([O-])c1ccc(OCO[C@@H]2O[C@H](CO)[C@@H](O)[C@H](O)[C@H]2O)cc1 [5 a, 4‐nitrophenyloxymethyl glucoside]",Release of 4-nitrophenol followed by 1H NMR (in words),[1],showed release of 4‐nitrophenol
"O=[N+]([O-])c1ccc(O[C@@H]2O[C@H](CO)[C@@H](O)[C@H](O)[C@H]2O)cc1 [6 a, reference compound]",Release of 4-nitrophenol followed by 1H NMR (in words),[1],release of 4‐nitrophenol
same,V0 at high substrate concentration (in words),[2],followed a horizontal asymptote
O=c1[nH]c(=O)n(CO[C@@H]2O[C@H](CO)[C@@H](O)[C@H](O)[C@H]2O)cc1F [10 f],Degradation in the control experiment (without enzyme),[3],no degradation was observed
same,Product release,[4]; 0.5 h,46% and 45.8±5.2%
same,Product release,[4]; 1.0 h,65.2±1.5%
same,Product release,[4]; 2.0 h,77.8±9.7%
CCCCc1nc(Cl)c(CO)n1Cc1ccc(-c2ccccc2-c2nnnn2CO[C@@H]2O[C@H](CO)[C@@H](O)[C@H](O)[C@H]2O)cc1 [10 h],Stability in formulation,[5]; formulation for oral gavage,stable in formulation
same,Chemical stability under acidic conditions,[5]; pH 1–2,stable for 16 h
same,Release of the parent drug under acidic conditions,"[5]; pH 1–2, 16 h",did not show any release of the parent drug
same,Maximum concentration (Cmax) of losartan versus dosing of parent (in words),[6],higher
same,Intact conjugate in the blood circulation,[6],no intact conjugate was detected
same,Intact conjugate in the blood circulation,[6]; listed as 19,no conjugate was detected
same,Enzymatic hydrolysis by Abg (in words),"[4]; 200 μM, HPLC, in presence of 5 % ethanol",hydrolyzed efficiently
same,Product release,"[4]; 0.5 h, in presence of 5 % ethanol",29.3±0.24%
same,Product release,"[4]; 1.0 h, in presence of 5 % ethanol",50.4±0.4%
same,Product release,"[4]; 2.0 h, in presence of 5 % ethanol",77.2±0.7%
